As a reminder, the pKi is −log10 of the Ki, conventionally taken in molar units. A high value points to a small Ki. Usually melting point stands for the temperature, or range, at which the solid turns liquid.

pKi: −log10 of the molar value.

We go through one compound from patent US7625913B2, “Pyrazole compounds useful as protein kinase inhibitors” (Vertex Pharmaceuticals Incorporated, priority 2000, dated 2009).

One data set addresses T1, GSK-3β (AA 1-420) (Homo sapiens, UniProt P49841).
T1 construct: GSK-3β (AA 1-420)
The experiment in a line: Ki determination for the inhibition of GSK-3 (coupled enzyme system). The class given is biochemical. Particulars: 20 μM ATP, 300 μM peptide, 20 nM GSK-3β, 30° C. The protocol:
Reactions were carried out in a solution containing 100 mM HEPES (pH 7.5), 10 mM MgCl2, 25 mM NaCl, 300 μM NADH, 1 mM DTT and 1.5% DMSO. Final substrate concentrations in the assay were 20 μM ATP (Sigma Chemicals, St Louis, Mo.) and 300 μM peptide (HSSPHQS(PO3H2)EDEEE, American Peptide, Sunnyvale, Calif.). Reactions were carried out at 30° C. and 20 nM GSK-3β. Final concentrations of the components of the coupled enzyme system were 2.5 mM phosphoenolpyruvate, 300 μM NADH, 30 μg/ml pyruvate kinase and 10 μg/ml lactate dehydrogenase.
An assay stock buffer solution was prepared containing all of the reagents listed above with the exception of ATP and the test compound of interest. […] The reaction was initiated by the addition of 20 μl of ATP (final concentration 20 μM). Rates of reaction were obtained using a Molecular Devices Spectramax plate reader (Sunnyvale, Calif.) over 10 min at 30° C. The Ki values were determined from the rate data as a function of inhibitor concentration.

The target of the next data set is T2, Aurora-2 (Homo sapiens, UniProt O14965).
T2 sequence (O14965 1-403): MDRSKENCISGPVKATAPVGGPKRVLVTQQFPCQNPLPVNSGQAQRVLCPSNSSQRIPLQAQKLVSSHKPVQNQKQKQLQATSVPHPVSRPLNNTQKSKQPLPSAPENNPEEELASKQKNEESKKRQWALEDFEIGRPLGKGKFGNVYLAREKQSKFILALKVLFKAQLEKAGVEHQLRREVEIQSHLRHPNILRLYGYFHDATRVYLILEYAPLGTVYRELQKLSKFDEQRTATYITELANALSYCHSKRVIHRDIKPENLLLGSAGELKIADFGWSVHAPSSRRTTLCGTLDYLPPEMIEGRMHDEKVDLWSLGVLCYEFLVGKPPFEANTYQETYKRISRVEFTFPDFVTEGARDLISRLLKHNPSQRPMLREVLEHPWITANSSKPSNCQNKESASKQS
The experiment in a line: Ki determination for the inhibition of Aurora-2 (coupled enzyme assay). Particulars: 70 nM Aurora-2, peptide LRRASLG, 30° C. The class given is biochemical. The protocol: To an assay stock buffer solution containing 0.1M HEPES 7.5, 10 mM MgCl2, 1 mM DTT, 25 mM NaCl, 2.5 mM phosphoenolpyruvate, […], 30 mg/ml pyruvate kinase, 10 mg/ml lactate dehydrogenase, 40 mM ATP, and 800 μM peptide (LRRASLG, American Peptide, Sunnyvale, Calif.) was added a DMSO solution of a compound of the present invention to a final concentration of 30 μM. The resulting mixture was incubated at 30° C. for 10 min. The reaction was initiated by the addition of 10 μL of Aurora-2 stock solution to give a final concentration of 70 nM in the assay. […] The Ki values were determined from the rate data as a function of inhibitor concentration.

The target in a further data set is CDK-2/Cyclin A (Homo sapiens, UniProt P24941). Briefly: CDK-2 inhibition assay (coupled enzyme assay). In kind it is biochemical. Particulars: 25 nM CDK-2/Cyclin A, 30° C. The procedure: Compounds were screened in the following manner for their ability to inhibit CDK-2 using a standard coupled enzyme assay (Fox et al (1998) Protein Sci 7, 2249).
To an assay stock buffer solution containing 0.1M HEPES 7.5, 10 mM MgCl2, 1 mM DTT, 25 mM NaCl, 2.5 mM phosphoenolpyruvate, […], 30 mg/ml pyruvate kinase, 10 mg/ml lactate dehydrogenase, 100 mM ATP, and 100 μM peptide ([…], American Peptide, Sunnyvale, Calif.) was added a DMSO solution of a compound of the present invention to a final concentration of 30 μM. The resulting mixture was incubated at 30° C. for 10 min.
The reaction was initiated by the addition of 10 μL of CDK-2/Cyclin A stock solution to give a final concentration of 25 nM in the assay. The rates of reaction were obtained by monitoring absorbance at 340 nm over a 5-minute read time at 30° C. using a BioRad Ultramark plate reader (Hercules, Calif.). The Ki values were determined from the rate data as a function of inhibitor concentration.

T1 sequence (P49841 whole entry, the tested form may be a part): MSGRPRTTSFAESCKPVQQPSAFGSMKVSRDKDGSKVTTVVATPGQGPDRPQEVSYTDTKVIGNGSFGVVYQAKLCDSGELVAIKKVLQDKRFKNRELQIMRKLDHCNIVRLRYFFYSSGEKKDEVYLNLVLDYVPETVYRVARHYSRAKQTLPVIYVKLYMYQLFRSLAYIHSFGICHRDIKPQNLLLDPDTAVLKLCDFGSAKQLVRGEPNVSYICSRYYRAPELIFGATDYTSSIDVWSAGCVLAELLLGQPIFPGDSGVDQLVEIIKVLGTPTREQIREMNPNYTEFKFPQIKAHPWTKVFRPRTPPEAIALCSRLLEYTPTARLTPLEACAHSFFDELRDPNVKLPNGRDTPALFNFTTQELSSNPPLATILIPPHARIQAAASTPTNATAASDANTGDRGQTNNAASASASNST

`COc1ccc2c(Nc3cc(C)n[nH]3)nc(Sc3ccc(NC(C)=O)cc3)nc2c1` [IIa-40, [2-(4-Acetamidophenylsulfanyl)-7-methoxy-quinazolin-4-yl]-(5-methyl-2H-pyrazol-3-yl)-amine] had a melting point of 291 to 293 °C. In addition, the pKi on GSK-3β (AA 1-420) is 5.15 to 6.00. This compound had a pKi at Aurora-2 greater than 7.00. On CDK-2/Cyclin A, this compound had a pKi of 4.70 to 6.00.
